{"source": "patent US4289910A", "about": "“1-Hydroxymethyl-prosten-1-ol derivatives” (American Cyanamid Company, priority 1980, dated 1981)", "format_in_all_cases": "in vivo", "key": {"[1]": {"tested_on": "Ach", "test": "Konzett data, Ach"}, "[2]": {"tested_on": "Hist", "test": "Konzett data, Hist"}, "[3]": {"tested_on": "5-HT", "test": "Konzett data, 5-HT"}}}
{"smiles": "CCCCC(C)(O)C/C=C/[C@H]1[C@H](O)CC(=O)[C@@H]1CCCCCCC(O)CO", "note": "(relative stereo) [11α,16-Dihydroxy-1-hydroxymethyl-16-methyl-,9-oxo-13-trans-prosten-1-ol]", "values": [{"measurement": "ED50", "setting": "[1]", "value": 75.9, "unit": "mg/kg"}]}
{"smiles": "C=CC(O)(C/C=C/[C@H]1[C@H](O)CC(=O)[C@@H]1CCCCCCC(O)CO)CCCC", "note": "(relative stereo) [3β-(4-Butylhydroxy-4-hydroxy-1,5-hexadienyl)-2α-(7,8-dihydroxyoctyl)-4α-hydroxycyclopentanone]", "values": [{"measurement": "ED50", "setting": "[1]", "value": 20.1, "unit": "mg/kg"}]}
{"smiles": "CCCCCC(C)(O)/C=C/C1C(O)CC(=O)C1C/C=C\\CCCCO", "note": "(racemic) [dl-1,11 ,15-trihydroxymethyl-9-oxo-15-methyl-5-cis-13-trans prostadiene]", "values": [{"measurement": "Ach (ED50)", "setting": "[1]", "value": 4.3, "unit": "mg/kg"}, {"measurement": "Hist (ED50)", "setting": "[2]", "value": 0.75, "unit": "mg/kg"}, {"measurement": "5-HT (ED50)", "setting": "[3]", "value": 8.3, "unit": "mg/kg"}]}
{"smiles": "C=CC(O)(C/C=C/[C@H]1[C@H](O)CC(=O)[C@@H]1C/C=C\\CCCC(O)CO)CCCC", "note": "(relative stereo) [11α,16-Dihydroxy-1-hydroxymethyl-16-vinyl-9-oxo-5-cis-13-trans-prostadien-1-ol]", "values": [{"measurement": "ED50", "setting": "[1]", "value": 11.8, "unit": "mg/kg"}]}
{"smiles": "CCCCC(C)(O)C/C=C/[C@H]1[C@H](O)CC(=O)[C@@H]1C/C=C\\CCCC(O)CO", "note": "(relative stereo) [11α,16-Dihydroxy-1-hydroxymethyl-16-methyl-9-oxo-5-cis-13-trans-prostadien-1-ol]", "values": [{"measurement": "ED50", "setting": "[1]", "value": 331, "unit": "mg/kg"}]}
